Source: PubChem BioAssay (NCI)
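48-hour exposure; five concentrations; linearly interpolated endpoints. TGI denotes the concentration required for complete inhibition of growth.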

Tests used:
Test in all cases: NCI tumour cell line growth inhibition, 48 h
[1] = system: 786-0 renal
[2] = system: A498 renal
[3] = system: A549 NSCLC
[4] = system: ACHN renal
[5] = system: BT-549 breast
[6] = system: CAKI-1 renal
[7] = system: CCRF-CEM leukemia
[8] = system: COLO 205 colon
[9] = system: DLD-1 colon
[10] = system: DMS 273 small cell lung
[11] = system: DU-145 prostate
[12] = system: EKVX NSCLC
[13] = system: HCC-2998 colon
[14] = system: HCT-116 colon
[15] = system: HCT-15 colon
[16] = system: HL-60(TB) leukemia
[17] = system: HOP-18 NSCLC
[18] = system: HOP-62 NSCLC
[19] = system: HOP-92 NSCLC
[20] = system: HS 578T breast
[21] = system: HT29 colon
[22] = system: IGROV1 ovarian
[23] = system: K-562 leukemia
[24] = system: KM12 colon
[25] = system: KM20L2 colon
[26] = system: LOX IMVI melanoma
[27] = system: M14 melanoma
[28] = system: MALME-3M melanoma
[29] = system: MCF7 breast
[30] = system: MDA-MB-231 breast
[31] = system: MDA-MB-435
[32] = system: MDA-N
[33] = system: MOLT-4 leukemia
[34] = system: NCI-H226 lung
[35] = system: NCI-H23 lung
[36] = system: NCI-H460 lung
[37] = system: NCI-H522 lung
[38] = system: NCI/ADR-RES ovarian
[39] = system: OVCAR-3 ovarian
[40] = system: OVCAR-4 ovarian
[41] = system: OVCAR-5 ovarian
[42] = system: OVCAR-8 ovarian
[43] = system: P388 leukemia
[44] = system: P388/ADR leukemia
[45] = system: PC-3 prostate
[46] = system: RPMI-8226 leukemia
[47] = system: RXF 393 renal
[48] = system: SF-268 CNS
[49] = system: SF-295 CNS
[50] = system: SF-539 CNS
[51] = system: SK-MEL-2 melanoma
[52] = system: SK-MEL-28 melanoma
[53] = system: SK-MEL-5 melanoma
[54] = system: SK-OV-3 ovarian
[55] = system: SN12C renal
[56] = system: SN12K1 renal
[57] = system: SNB-19 CNS
[58] = system: SNB-75 CNS
[59] = system: SNB-78 CNS
[60] = system: SR leukemia
[61] = system: SW-620 colon
[62] = system: T-47D breast
[63] = system: TK-10 renal
[64] = system: U251 CNS
[65] = system: UACC-257 melanoma
[66] = system: UACC-62 melanoma
[67] = system: UO-31 renal
[68] = system: DMS 114 small cell lung
[69] = system: LXFL 529 NSCLC
[70] = system: M19-MEL melanoma
[71] = system: RXF-631 renal
[72] = system: XF 498 CNS

O=S(=O)(O)O
TGI [1]: 1.49 mM
TGI [2]: 1.78 mM
TGI [3]: 1.87 mM
TGI [4]: 1.55 mM
TGI [5]: 2.68 mM
TGI [6]: 1.87 mM
TGI [7]: 0.684 mM
TGI [8]: 2.21 mM
TGI [9]: > 3 mM
TGI [10]: 0.54 mM
TGI [11]: 1.62 mM
TGI [12]: 2.47 mM
TGI [13]: 2.15 mM
TGI [14]: 0.914 mM
TGI [15]: 1.82 mM
TGI [16]: 1.3 mM
TGI [17]: 1.68 mM
TGI [18]: 1.07 mM
TGI [19]: 2.01 mM
TGI [20]: 2.24 mM
TGI [21]: 1.45 mM
TGI [22]: 2.17 mM
TGI [23]: 1.23 mM
TGI [24]: 2.15 mM
TGI [25]: 2.28 mM
TGI [26]: 0.542 mM
TGI [27]: 1.58 mM
TGI [28]: 2.05 mM
TGI [29]: 1.41 mM
TGI [30]: > 1.9 mM
TGI [31]: 0.634 mM
TGI [32]: 0.36 mM
TGI [33]: 1.68 mM
TGI [34]: 2.39 mM
TGI [35]: 1.58 mM
TGI [36]: 1.21 mM
TGI [37]: 1.77 mM
TGI [38]: 2.36 mM
TGI [39]: 1.77 mM
TGI [40]: 2.08 mM
TGI [41]: 1.7 mM
TGI [42]: 1.83 mM
TGI [43]: > 1.82 mM
TGI [44]: > 3 mM
TGI [45]: 1.19 mM
TGI [46]: 2.5 mM
TGI [47]: 1.5 mM
TGI [48]: 1.98 mM
TGI [49]: 2.06 mM
TGI [50]: 1.84 mM
TGI [51]: 1.45 mM
TGI [52]: 1.7 mM
TGI [53]: 2.2 mM
TGI [54]: 2.65 mM
TGI [55]: 1.45 mM
TGI [56]: 1.38 mM
TGI [57]: 2.58 mM
TGI [58]: 2.29 mM
TGI [59]: 2.93 mM
TGI [60]: > 1.81 mM
TGI [61]: 1.03 mM
TGI [62]: 1.77 mM
TGI [63]: 2.16 mM
TGI [64]: 1.48 mM
TGI [65]: 1.99 mM
TGI [66]: 1.94 mM
TGI [67]: 1.77 mM

CC(C)C1CO[C@]2(C)CCC(=O)N12 (stereo not given in full)
TGI [1]: > 0.1 mM
TGI [3]: > 0.1 mM
TGI [4]: > 0.1 mM
TGI [6]: > 0.1 mM
TGI [7]: > 0.1 mM
TGI [8]: > 0.1 mM
TGI [9]: > 0.1 mM
TGI [68]: > 0.1 mM
TGI [12]: > 0.1 mM
TGI [14]: > 0.1 mM
TGI [15]: > 0.1 mM
TGI [16]: > 0.1 mM
TGI [17]: > 0.1 mM
TGI [18]: > 0.1 mM
TGI [19]: > 0.1 mM
TGI [21]: > 0.1 mM
TGI [22]: > 0.1 mM
TGI [23]: > 0.1 mM
TGI [24]: > 0.1 mM
TGI [25]: > 0.1 mM
TGI [69]: > 0.1 mM
TGI [27]: > 0.1 mM
TGI [70]: > 0.1 mM
TGI [28]: > 0.1 mM
TGI [33]: > 0.1 mM
TGI [34]: > 0.1 mM
TGI [35]: > 0.1 mM
TGI [36]: > 0.1 mM
TGI [37]: > 0.1 mM
TGI [39]: > 0.1 mM
TGI [40]: > 0.1 mM
TGI [42]: > 0.1 mM
TGI [46]: > 0.1 mM
TGI [47]: > 0.1 mM
TGI [71]: > 0.1 mM
TGI [48]: > 0.1 mM
TGI [49]: > 0.1 mM
TGI [50]: > 0.1 mM
TGI [51]: > 0.1 mM
TGI [52]: > 0.1 mM
TGI [53]: > 0.1 mM
TGI [54]: > 0.1 mM
TGI [55]: > 0.1 mM
TGI [57]: > 0.1 mM
TGI [58]: > 0.1 mM
TGI [60]: > 0.1 mM
TGI [61]: > 0.1 mM
TGI [63]: > 0.1 mM
TGI [64]: > 0.1 mM
TGI [65]: > 0.1 mM
TGI [66]: > 0.1 mM
TGI [67]: > 0.1 mM
TGI [72]: > 0.1 mM
